Structures can show the parent of a compound that is named as a salt.
Columns and labels:
[1] = molecular target: T1, NA-uptake (reuptake of noradrenaline in synaptosomes) (Rattus norvegicus, UniProt Q9WTR4); assay: Inhibition of noradrenaline (NA) reuptake in synaptosomes; type: biochemical
T1 construct: In synaptosomes as described in WO 97/16451; from tissue
Protocol: (§1) A number of compounds were tested for their ability to inhibit the reuptake of the monoamine neurotransmitters dopamine (DA) noradrenaline(NA) and serotonin (5-HT) In synaptosomes as described in WO 97/16451.
(§2) The test values are given as IC50 (the concentration (μM) of the test substance which inhibits the specific binding of ^3H-DA, ^3H-NA, or ^3H-5-HT by 50%).

[2] = molecular target: T2, DA-uptake (reuptake of dopamine in synaptosomes) (Rattus norvegicus, UniProt P23977); assay: Inhibition of dopamine (DA) reuptake in synaptosomes; type: biochemical
T2 construct: In synaptosomes as described in WO 97/16451; from tissue
T2 sequence (P23977 whole entry): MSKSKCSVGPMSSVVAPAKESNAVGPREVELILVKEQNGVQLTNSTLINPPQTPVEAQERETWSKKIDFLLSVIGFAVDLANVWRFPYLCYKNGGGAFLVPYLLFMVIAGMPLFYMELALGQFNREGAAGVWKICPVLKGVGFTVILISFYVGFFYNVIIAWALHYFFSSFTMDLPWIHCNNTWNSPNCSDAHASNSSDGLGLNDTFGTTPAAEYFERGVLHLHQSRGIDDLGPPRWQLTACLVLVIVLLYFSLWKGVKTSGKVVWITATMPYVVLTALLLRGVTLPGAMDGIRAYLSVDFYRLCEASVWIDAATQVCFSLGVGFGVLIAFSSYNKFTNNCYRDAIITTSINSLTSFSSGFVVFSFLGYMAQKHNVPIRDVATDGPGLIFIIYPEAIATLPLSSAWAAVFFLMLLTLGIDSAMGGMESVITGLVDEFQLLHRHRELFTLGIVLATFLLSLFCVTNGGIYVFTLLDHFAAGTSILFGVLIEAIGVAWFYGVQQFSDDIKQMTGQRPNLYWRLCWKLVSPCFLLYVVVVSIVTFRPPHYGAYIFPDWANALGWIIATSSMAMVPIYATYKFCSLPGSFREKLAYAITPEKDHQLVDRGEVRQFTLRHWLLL
Protocol: as §1, §2

[3] = molecular target: T3, 5-HT-uptake (reuptake of serotonin in synaptosomes) (Rattus norvegicus, UniProt P31652); assay: Inhibition of serotonin (5-HT) reuptake in synaptosomes; type: biochemical
T3 construct: In synaptosomes as described in WO 97/16451; from tissue
T3 sequence (P31652 whole entry): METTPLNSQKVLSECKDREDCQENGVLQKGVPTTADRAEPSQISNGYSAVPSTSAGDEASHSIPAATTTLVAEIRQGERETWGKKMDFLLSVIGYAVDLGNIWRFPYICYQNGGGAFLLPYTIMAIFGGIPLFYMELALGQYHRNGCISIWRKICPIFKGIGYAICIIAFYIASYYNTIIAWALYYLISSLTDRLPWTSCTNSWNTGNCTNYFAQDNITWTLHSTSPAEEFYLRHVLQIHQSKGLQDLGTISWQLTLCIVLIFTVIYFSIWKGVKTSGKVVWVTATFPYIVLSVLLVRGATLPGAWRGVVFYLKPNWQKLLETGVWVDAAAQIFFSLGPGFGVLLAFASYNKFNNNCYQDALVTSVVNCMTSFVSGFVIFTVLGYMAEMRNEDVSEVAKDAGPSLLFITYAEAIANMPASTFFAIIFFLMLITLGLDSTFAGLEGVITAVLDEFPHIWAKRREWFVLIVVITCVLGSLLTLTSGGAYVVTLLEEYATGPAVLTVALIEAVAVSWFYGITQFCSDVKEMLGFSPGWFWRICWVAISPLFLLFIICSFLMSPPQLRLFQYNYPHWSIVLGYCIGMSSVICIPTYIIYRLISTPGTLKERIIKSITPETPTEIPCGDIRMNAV
Protocol: as §1, §2

T1 sequence (Q9WTR4 1-597): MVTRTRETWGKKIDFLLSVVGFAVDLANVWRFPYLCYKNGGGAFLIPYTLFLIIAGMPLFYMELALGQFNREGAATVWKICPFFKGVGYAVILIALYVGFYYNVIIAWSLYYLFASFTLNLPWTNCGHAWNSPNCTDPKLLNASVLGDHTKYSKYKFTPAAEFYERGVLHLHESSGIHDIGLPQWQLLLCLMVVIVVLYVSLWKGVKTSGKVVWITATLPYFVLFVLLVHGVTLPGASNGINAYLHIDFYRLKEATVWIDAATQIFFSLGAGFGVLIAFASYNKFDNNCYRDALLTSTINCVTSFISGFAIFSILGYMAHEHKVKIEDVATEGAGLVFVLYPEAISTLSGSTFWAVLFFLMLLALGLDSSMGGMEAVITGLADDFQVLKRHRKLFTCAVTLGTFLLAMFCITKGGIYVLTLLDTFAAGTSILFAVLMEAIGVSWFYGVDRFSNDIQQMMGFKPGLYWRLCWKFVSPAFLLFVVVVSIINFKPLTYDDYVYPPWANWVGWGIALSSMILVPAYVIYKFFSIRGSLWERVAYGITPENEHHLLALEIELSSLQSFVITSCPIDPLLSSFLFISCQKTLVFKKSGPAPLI

SMILES	IC50 [1] [nM]	IC50 [2] [nM]	IC50 [3] [nM]	melting point [°C]
c1csc(C2CC3CCC(N3)C2COc2cccc3ccccc23)c1 [2nd compound of method E, (2R,3S)-2-(1-Naphthyloxymethyl)-8-H-3-(2-thienyl)-8-aza-bicyclo[3.2.1]octane fumaric acid salt]	1.6	190	0.54	–
CN1C2CCC1[C@H](COc1cccc(Cl)c1Cl)[C@@H](c1ccco1)C2.O=C(O)/C=C/C(=O)O (stereo partly drawn) [5th compound of method D, (2R,3S)-2-(2,3-Dichlorophenoxymethyl)-8-methyl-3-(2-furanyl)-8-aza-bicyclo[3.2.1]octane fumaric acid salt]	0.9	310	0.36	156.4 to 205.9
CN1C2CCC1[C@H](COc1cccc(Cl)c1Cl)[C@@H](c1cccs1)C2 (stereo partly drawn) [1st compound of method D, (2R,3S)-2-(2,3-Dichlorophenoxymethyl)-8-methyl-3-(2-thienyl)-8-aza-bicyclo[3.2.1]octane fumaric acid salt]	1.9	300	0.52	–
c1csc(C2CC3CCC(N3)C2COc2cccc3ccccc23)c1 (as salt: fumaric acid salt) [2nd compound of method E, (2R,3S)-2-(1-Naphthyloxymethyl)-8-H-3-(2-thienyl)-8-aza-bicyclo[3.2.1]octane fumaric acid salt]	–	–	–	199.1
CN1C2CCC1[C@H](COc1cccc3ccccc13)[C@@H](c1ccco1)C2 (stereo partly drawn) [6th compound of method D, (2R,3S)-2-(1-Naphthyloxymethyl)-8-methyl-3-(2-furanyl)-8-aza-bicyclo[3.2.1]octane fumaric acid salt]	3	920	0.53	–
Clc1cccc(OCC2C3CCC(CC2c2cccs2)N3)c1Cl [1st compound of method E, (2R,3S)-2-(2,3-Dichlorophenoxymethyl)-8-H-3-(2-thienyl)-8-aza-bicyclo[3.2.1]octane fumaric acid salt]	1.8	74	0.74	–
Clc1cccc(OCC2C3CCC(CC2c2cccs2)N3)c1Cl (as salt: fumaric acid salt) [1st compound of method E, (2R,3S)-2-(2,3-Dichlorophenoxymethyl)-8-H-3-(2-thienyl)-8-aza-bicyclo[3.2.1]octane fumaric acid salt]	–	–	–	201.2
CN1C2CCC1[C@H](COc1cccc3ccccc13)[C@@H](c1cccs1)C2.O=C(O)/C=C/C(=O)O (stereo partly drawn) [2nd compound of method D, (2R,3S)-2-(1-Naphthyloxymethyl)-8-methyl-3-(2-thienyl)-8-aza-bicyclo[3.2.1]octane fumaric acid salt]	3.6	360	0.42	203.1
